We go through four compounds from publication PMC11172314, “Towards Enhanced Tunability of Aqueous Biphasic Systems: Furthering the Grasp of Fluorinated Ionic Liquids in the Purification of Proteins” (International Journal of Molecular Sciences, 2024).

One data set addresses T1, FITC-Lys (lysozyme) (Gallus gallus, UniProt P00698).
T1 construct: Lyophilized lysozyme from chicken egg white, ≥90% purity; purchased Millipore (Darmstadt, Germany); host or cells: chicken egg white (natural source)
Briefly: Microscale thermophoresis (MST) binding of ABS phase-forming components to FITC-labeled lysozyme. Also on record: species or system chicken. To be noted: FITC-Lys 0.41 μM, 25 °C. The method, then: Usually, in the labeling process, the position of dye is statistically distributed, and one amine per protein is labeled. […] The four ABS phase-forming components, [ N1112(OH) ][H2PO4] […] (FILs), and [C4C1Im][CF3SO3] […] In each run of MST, a maximum concentration of ligand was selected and consecutively diluted in sixteen capillaries.
Binding studies were conducted through microscale thermophoresis measurements of dye-labeled lysozyme. […] MST tests were conducted in a monolith NT.115 (blue/red) in accordance with the Nano Temper Technologies methodology. Medium MST power and 20% LED power (nano-blue) were set as the instrument’s default settings. For each and every MST measurement, PBS buffer was used. […] For each ligand, a series of 16 1:1 dilutions was prepared using the same buffer, varying the starting ligand concentration from 15 to 400 mM. MST traces were recorded using the standard parameters: 5 s MST power off, 30 s MST power on, and 5 s MST power off. Three independently conducted pipetted experiments’ data were examined using NanoTemper Technologies’ MO. Affinity Analysis program, version 2.3.
In general terms: Microscale thermophoresis detects binding through changes in fluorescence in a small temperature gradient.

The target of data set [1] is T2, lysozyme (Lys) (Gallus gallus, UniProt P00698).
T2 construct: Lyophilized lysozyme from chicken egg white, ≥90% purity; purchased Millipore (Darmstadt, Germany); host or cells: chicken egg white (natural source)
T2 sequence (P00698 19-147): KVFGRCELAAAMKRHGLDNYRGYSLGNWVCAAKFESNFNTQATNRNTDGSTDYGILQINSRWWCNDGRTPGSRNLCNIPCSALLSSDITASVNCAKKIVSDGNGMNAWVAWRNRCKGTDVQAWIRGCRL
Put plainly: DSC thermal stability (Tm, ΔH) of lysozyme in water, component solutions and ABS phases. Set-up: species or system chicken. To be noted: for Lys Tm / Lys ∆H: 1.0 mg/mL Lys. The text has this: Differential scanning calorimetry (DSC) measurements (Section 3) were used to determine the melting temperature ( Tm ) and enthalpy ( Δ H) of lysozyme, at which both the folded and unfolded states coexist at equilibrium. DSC outputs, thermal transitions at the nanoscale level, allow to analyze alterations on proteins structure and stability, providing sharp perceptions of the factors affecting stability, as well as of the folding and unfolding processes. […] (DSC curve depicted in Figure S16 of Supplementary Materials).
FIL (BP#8, BP#10, BP#11, and BP#12). […] For the system based on [C4C1Im][CF3SO3]
The thermal stability of lysozyme was analyzed in water, ABS phase-forming compounds aqueous solutions, and partition ABS phases. […] Partition lysozyme on each phase from the prepared biphasic points as well as recovered protein from the FIL-rich phase were also addressed for a selection of studied systems listed in Table 1. We acquired thermograms using a TA^TM Nano DSC from TA Instruments. All scans were conducted in a 300 μ L capillary cell through a temperature ramp from 20 to 90 °C at a heating rate of 1 °C/min and 3 atm pressure. All samples were degassed for 7 min at 20 °C, with the exception of FIL-containing samples owing to their surfactant properties. After subtracting the polynomial fit baselines, raw thermogram curve data were fitted with the TwoStateScaled model using NanoAnalyze TA Instruments software, version 3.12, to determine the protein thermal transition temperatures in each sample. During nanoDSC scans, Δ H and Δ S were obtained and utilized to determine Δ G ( Δ G = Δ H − T Δ S).
(DSC measures the heat that a sample takes up or gives off during a temperature scan.)

Data set [2] concerns the target T2, lysozyme (Lys). Briefly: Far-UV CD secondary structure content of lysozyme (K2D deconvolution). Also on record: species or system chicken; Lys α-helix content / Lys β-sheet content / Lys random coil content / α-helix content / β-sheet content / Random coil content: unit not given here. The following applies: 25 °C; for Lys random coil content / Lys α-helix content / Lys β-sheet content: 1.0 mg/ml Lys. The method, then:
Circular dichroism (CD) spectroscopy is broadly applied to assess the secondary structure of proteins because different structural elements have characteristic CD spectra. […] For [C4C1Im][CF3SO3] (mere fluoro-containing IL), the structural content was estimated for the concentration range (0.1–200 mM). […] FIL and [ N1112(OH) ][H2PO4] […] No substantial protein structural modification upon the ABS phase-forming component addition was verified.
Circular dichroism (CD) spectra were collected in a 10 mm quartz cuvette and a Chirascan spectropolarimeter (Applied Photophysics, Leatherhead, UK) at room temperature. All CD spectra were recorded in far-UV 190 to 260 nm at scan rates of 50 nm/min, 4 accumulations, and a response time of 3 s. Each CD experiment involved the acquisition and combination of two distinct duplicates. […] Spectral deconvolution was carried out with Dichroweb using the K2D algorithm.

On the set-up of data set [3]: method as in earlier work. The following applies: aqueous solution, 25 °C, conductometry; ref 21 (supplement ref 1); cited from earlier work.
The target of data set [4] is T2, lysozyme (Lys). Briefly: Intrinsic (tryptophan) fluorescence of lysozyme. Also on record: species or system chicken. The following applies: 0.2 mg/mL Lys, excitation 295 nm, component 0.1–800 mM, 25 °C. An excerpt: (FIL), [C4C1Im][CF3SO3] (mere fluoro-containing IL), and [ N1112(OH) ][H2PO4] (globular protein stabilizer). […] Even though large changes in protein conformation can modify the intensity of tyrosine and phenylalanine fluorescence signals, their low extinction coefficients and quantum yields, as well as their relative lower sensitivity to environmental changes, make them a less appealing candidate. Tryptophan is frequently found concealed in the hydrophobic core of proteins due to its aromatic nature. […] The tryptophan release energy is particularly sensitive to the polarity (and dynamics) of the environment because the excited-state dipole moment is quite large. Reactions to denaturation, substrate binding, subunit association, and conformational transitions create variations in the tryptophan emission spectra. The spectrum shift generally known as blue shift, a shift of the maximum emission towards smaller wavelengths, denotes that the aromatic residue is buried in the native structure of the protein [67]. […] Furthermore, the amount of exposure of the fluorophores to the solvent is associated with the increase or decrease in the intensity of the emission spectrum. […] [C4C1Im][CF3SO3] and [ N1112(OH) ][H2PO4] […] Variations in lysozyme spectra are caused by ligand-induced changes in the microenvironment of tryptophan residues, either by shifting the maximum peak wavelength (blue or red shift) or by altering peak intensities. These changes can be used as a measure of the effect of the ABS phase-forming components on protein folding and unfolding.
Intrinsic fluorescence spectroscopy measurements of lysozyme’s tryptophan residues were carried out on a Spex Horiba Jobyin Yvon spectrofluorometer (HORIBA Jobin Yvon, France) using a 10 mm path length quartz cuvette. […] The excitation and emission slit widths of 2 nm were used for all the measurements. Maximum fluorescence values were attained as the average of three measurements.

Data set [5] deals with T2, lysozyme (Lys). Set-up: method as in PMID 28478279, PMID 17406547. To be noted: cited from earlier work.
The conditions of data set [6]: cited from earlier work.
Where [7] appears, read: max. conc. (first capillary) in monomer range: below 1st CAC for FILs, ]0, 100] mM for non-aggregating ligands.

Read-outs that look alike come from different tables or passages of the source.

T1 sequence (P00698 19-147): as above

`C[N+](C)(C)CCO.O=S(=O)([O-])C(F)(F)C(F)(F)C(F)(F)C(F)(F)F` [[N1112(OH) ][C4F9SO3]]: on FITC-Lys (lysozyme) (setting [7]), the Kd entry was “no binding detected”. The “Lys Tm” value at lysozyme (Lys) [1] (0.1 mM component in water) is 77.15 °C; at lysozyme (Lys) [1] (1 mM component in water), 76.65 °C; on lysozyme (Lys) [1] (5 mM component in water), 75.19 °C; at lysozyme (Lys) [1] (10 mM component in water) it was 74.28 °C; on lysozyme (Lys) [1] (25 mM component in water, several transitions listed singly, listed as [N1112(OH)][C4F9SO3]) it was 83.98 °C. Moreover, the “Lys ∆H” value on lysozyme (Lys) [1] (0.1 mM component in water) was determined as 136.3 kcal/mol; at lysozyme (Lys) [1] (1 mM component in water) it was 127.7 kcal/mol; on lysozyme (Lys) [1] (5 mM component in water), 123 kcal/mol; on lysozyme (Lys) [1] (10 mM component in water) it was 134 kcal/mol. For the same compound, the “Lys random coil content” value at lysozyme (Lys) [2] (0.1 mM component) was determined as 0.57; on lysozyme (Lys) [2] (1 mM component), 0.58; on lysozyme (Lys) [2] (5 mM component), 0.56; on lysozyme (Lys) [2] (25 mM component), 0.57. The “Lys α-helix content” value is reported as 0.28 on lysozyme (Lys) [2] (0.1 mM component), 0.28 on lysozyme (Lys) [2] (1 mM component), 0.25 on lysozyme (Lys) [2] (5 mM component) and 0.24 at lysozyme (Lys) [2] (25 mM component). For the same compound, the “Lys β-sheet content” value is on record as 0.15 on lysozyme (Lys) [2] (0.1 mM component), 0.14 on lysozyme (Lys) [2] (1 mM component), 0.19 at lysozyme (Lys) [2] (5 mM component) and 0.2 on lysozyme (Lys) [2] (25 mM component). Also, the “1st CAC” value in data set [3] was 16.02 mM. In addition, the “2nd CAC” value in data set [3] is given as 35.17 mM. Moreover, in data set [3], the “3rd CAC” value is 185.65 mM.
On to `O=S(=O)(O)C(F)(F)C(F)(F)C(F)(F)C(F)(F)F` [[N1112(OH) ][C4F9SO3]], for which the equilibrium dissociation constant (Kd) at FITC-Lys (lysozyme) (max. conc. (first capillary) in 1st CAC range ([14.4, 34.48[ or [16.02, 35.17[ mM), read-out: Kd) was 6.05 ± 1.67 mM; on FITC-Lys (lysozyme) (max. conc. (first capillary) in 2nd CAC range ([34.48, 76.54[ or [35.17, 185.65[ mM), read-out: Kd), 6.25 ± 1.47 mM.
On to `C[N+](C)(C)CCO.C[N+](C)(C)CCO.O=P([O-])(O)O.O=P([O-])(O)O` [[N1112(OH) ][H2PO4], Choline ((2-hydroxyethyl)trimethylammonium) dihydrogen phosphate], for which, on FITC-Lys (lysozyme) (setting [7]), the Kd entry is recorded as “no binding detected”. The “Lys Tm” value stood at 77.10 °C at lysozyme (Lys) [1] (0.1 mM component in water), 77.11 °C at lysozyme (Lys) [1] (1 mM component in water), 76.70 °C on lysozyme (Lys) [1] (5 mM component in water) and 77.06 °C at lysozyme (Lys) [1] (10 mM component in water). The “Lys ∆H” value on lysozyme (Lys) [1] (0.1 mM component in water) was 134.8 kcal/mol; on lysozyme (Lys) [1] (1 mM component in water), 132.5 kcal/mol; on lysozyme (Lys) [1] (5 mM component in water), 142.8 kcal/mol; on lysozyme (Lys) [1] (10 mM component in water), 137.8 kcal/mol. Also, the “Lys random coil content” value was 0.56 at lysozyme (Lys) [2] (0.1 mM component), 0.58 at lysozyme (Lys) [2] (1 mM component), 0.56 on lysozyme (Lys) [2] (5 mM component) and 0.57 on lysozyme (Lys) [2] (25 mM component). The “Lys α-helix content” value was 0.29 at lysozyme (Lys) [2] (0.1 mM component), 0.28 at lysozyme (Lys) [2] (1 mM component), 0.25 at lysozyme (Lys) [2] (5 mM component) and 0.24 on lysozyme (Lys) [2] (25 mM component). The “Lys β-sheet content” value is 0.15 on lysozyme (Lys) [2] (0.1 mM component), 0.14 at lysozyme (Lys) [2] (1 mM component), 0.18 on lysozyme (Lys) [2] (5 mM component) and 0.2 at lysozyme (Lys) [2] (25 mM component). Further, on lysozyme (Lys) [4], the “Lys fluorescence emission intensity with increasing component concentration” value was “reduction in fluorescence emission intensity”. Besides, the “Lys maximum emission wavelength with increasing component concentration” value at lysozyme (Lys) [4] is given as “remains constant”.
On to “Lys: lysozyme from chicken egg white (muramidase, EC 3.2.1.17), 14 kDa globular protein used as protein model”, for which the Tm with lysozyme (Lys) [1] (0.5 mg/ml Lys in water) amounted to 69.26±0.031 °C. For the same compound, in the data set with lysozyme (Lys) [1] (1.0 mg/mL Lys in water), the “∆H” value is 118 kcal/mol. Also, the midpoint of thermal melting (Tm) in the data set with lysozyme (Lys) [1] (3.0 mg/ml Lys in water) worked out at 73.85±0.005 °C. For the same compound, in the data set with lysozyme (Lys) [2] (1.0 mg/mL Lys in water), the “α-helix, secondary structure prediction” value is on record as 29% and the “β-strand, secondary structure prediction” value was 14%. Besides, in the data set with lysozyme (Lys) [2] (1.0 mg/ml Lys in water (0 mM)), the Random coil content was 0.57, the α-helix content is reported as 0.29 and the β-sheet content is on record as 0.14. Besides, in the data set with lysozyme (Lys) [5], the “β-strand, analysis based on various methods” value is recorded as “≈ 19%”. Besides, in data set [6], the isoelectric point result was “around 11.0”.

One may read the Kd as a measure of binding affinity in units of concentration. Broadly, the Tm is the temperature at the midpoint of the melting transition.
